Experimental data from patent US9718804B2, “GSK-3 inhibitors” (BRISTOL-MYERS SQUIBB COMPANY, priority 2013, dated 2017).
Where two headings read alike, the source gives them in different places.

Columns and labels:
GSK3α = GSK3α (Homo sapiens, UniProt P49840); assay: GSK3α kinase assay (Caliper LabChip, fluoresceinated peptide substrate); format: biochemical
Procedure, shortened: (§1)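 Readout: electrophoretic resolution of phosphorylated from unphosphorylated peptide on a LabChip3000. Reactions incubated 20 h at room temperature before termination with 35 mM EDTA. Eleven-concentration curves gave IC50 via non-linear regression.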

GSK3β = GSK3β (Homo sapiens, UniProt P49841); assay: GSK3β kinase assay (Caliper LabChip, fluoresceinated peptide substrate); format: biochemical
Sequence of GSK3β (P49841 whole entry, species assumed): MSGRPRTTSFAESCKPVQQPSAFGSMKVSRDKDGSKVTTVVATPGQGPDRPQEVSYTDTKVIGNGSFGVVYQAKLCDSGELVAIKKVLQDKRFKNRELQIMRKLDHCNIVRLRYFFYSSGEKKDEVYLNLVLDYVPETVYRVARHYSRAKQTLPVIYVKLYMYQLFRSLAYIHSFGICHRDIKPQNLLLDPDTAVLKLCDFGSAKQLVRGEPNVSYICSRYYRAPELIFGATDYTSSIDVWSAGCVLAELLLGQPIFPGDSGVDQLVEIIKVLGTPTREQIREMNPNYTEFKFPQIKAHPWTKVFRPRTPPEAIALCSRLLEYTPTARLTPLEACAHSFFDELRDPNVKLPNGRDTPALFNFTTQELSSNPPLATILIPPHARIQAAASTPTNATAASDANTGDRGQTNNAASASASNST
Procedure, shortened: as §1

pTau = pTau assay (no method described); format: cell-based
[1] = first value of the cell, 250 pM enzyme, 20 uM ATP, 20 hours at room temperature, read-out: GSK3β/α (nM): GSK3β IC50

Sequence of GSK3α (P49840 whole entry, species assumed): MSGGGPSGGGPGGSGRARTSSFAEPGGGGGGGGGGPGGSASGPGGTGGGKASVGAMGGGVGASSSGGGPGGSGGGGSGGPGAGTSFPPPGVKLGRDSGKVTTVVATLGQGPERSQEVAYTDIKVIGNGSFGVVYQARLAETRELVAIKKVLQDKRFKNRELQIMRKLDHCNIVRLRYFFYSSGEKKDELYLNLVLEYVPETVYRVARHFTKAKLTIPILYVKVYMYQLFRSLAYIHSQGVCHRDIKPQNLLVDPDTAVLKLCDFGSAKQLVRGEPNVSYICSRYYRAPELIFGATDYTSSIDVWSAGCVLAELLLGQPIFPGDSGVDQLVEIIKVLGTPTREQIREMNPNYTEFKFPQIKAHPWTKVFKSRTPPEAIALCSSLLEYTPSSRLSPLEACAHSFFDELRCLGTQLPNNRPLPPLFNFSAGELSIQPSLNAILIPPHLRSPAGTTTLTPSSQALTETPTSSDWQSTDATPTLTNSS

| SMILES | IC50 (GSK3α) [nM] | IC50 (GSK3β; [1]) [nM] | IC50 (pTau) [nM] | IC50 (GSK3β) [nM] |
| --- | --- | --- | --- | --- |
| O=C(Nc1cncc(-c2ccccc2Cl)c1)c1ccnc(Nc2ccc(C(F)(F)F)cn2)c1 [Example 128, N-(5-(2-Chlorophenyl)pyridin-3-yl)-2-((5-(trifluoromethyl)pyridin-2-yl)amino)isonicotinamide] | 16 | 12 | 2180 | – |
| O=C(Nc1cncc(-c2cc(F)ccc2F)c1)c1ccnc(Nc2ccc(C(F)(F)F)cn2)c1 [Example 129, N-(5-(2,5-Difluorophenyl)pyridin-3-yl)-2-((5-(trifluoromethyl)pyridin-2-yl)amino)isonicotinamide] | 9.8 | 18 | 2100 | – |
| O=C(Nc1cncc(-c2cccc(F)c2F)c1)c1ccnc(Nc2ccc(C(F)(F)F)cn2)c1 [Example 130, N-(5-(2,3-Difluorophenyl)pyridin-3-yl)-2-((5-(trifluoromethyl)pyridin-2-yl)amino)isonicotinamide] | 20 | 42 | 2600 | – |
| O=C(Nc1cncc(-c2ccccc2F)c1)c1ccnc(Nc2ccc(F)cn2)c1 [Example 131, N-(5-(2-Fluorophenyl)pyridin-3-yl)-2-((5-fluoropyridin-2-yl)amino)isonicotinamide] | 3 | – | 640 | 6.1 |
| Cc1ccnc(Nc2cc(C(=O)Nc3cncc(-c4ccccc4F)c3)ccn2)c1 [Example 132, N-(5-(2-Fluorophenyl)pyridin-3-yl)-2-((4-methylpyridin-2-yl)amino)isonicotinamide] | 6.2 | – | 1900 | 9 |
| Cc1ccc(Nc2cc(C(=O)Nc3cncc(-c4ccccc4F)c3)ccn2)nc1 [Example 133, N-(5-(2-Fluorophenyl)pyridin-3-yl)-2-((5-methylpyridin-2-yl)amino)isonicotinamide] | 3.4 | 7.3 | 1400 | – |
| O=C(Nc1cncc(-c2ccccc2F)c1)c1ccnc(Nc2cccc(C(F)(F)F)n2)c1 [Example 134, N-(5-(2-Fluorophenyl)pyridin-3-yl)-2-((6-(trifluoromethyl)pyridin-2-yl)amino)isonicotinamide] | 1.5 | 3.9 | 470 | – |
| N#Cc1ccc(Nc2cc(C(=O)Nc3cncc(-c4ccccc4F)c3)ccn2)nc1 [Example 135, 2-((5-Cyanopyridin-2-yl)amino)-N-(5-(2-fluorophenyl)pyridin-3-yl)isonicotinamide] | 1.7 | 3 | 670 | – |
| O=C(Nc1cncc(-c2ccccc2F)c1)c1ccnc(Nc2cccc(F)n2)c1 [Example 136, N-(5-(2-Fluorophenyl)pyridin-3-yl)-2-((6-fluoropyridin-2-yl)amino)isonicotinamide] | 2.7 | 11 | 1100 | – |
| Cc1cccc(Nc2cc(C(=O)Nc3cncc(-c4ccccc4F)c3)ccn2)n1 [Example 137, N-(5-(2-Fluorophenyl)pyridin-3-yl)-2-((6-methylpyridin-2-yl)amino)isonicotinamide] | 5.6 | 7.1 | 2700 | – |
| CCc1cccc(Nc2cc(C(=O)Nc3cncc(-c4ccccc4F)c3)ccn2)n1 [Example 138, N-(5-(2-Fluorophenyl)pyridin-3-yl)-2-((6-ethylpyridin-2-yl)amino)isonicotinamide] | 2.2 | 3.5 | 4700 | – |
| COc1cccc(Nc2cc(C(=O)Nc3cncc(-c4ccccc4F)c3)ccn2)n1 [Example 139, N-(5-(2-Fluorophenyl)pyridin-3-yl)-2-((6-methoxylpyridin-2-yl)amino)isonicotinamide] | 3.2 | 5.4 | 1300 | – |
| O=C(Nc1cncc(-c2ccccc2F)c1)c1ccnc(Nc2ccc(N3CCOCC3)cn2)c1 [Example 140, N-(5-(2-Fluorophenyl)pyridin-3-yl)-2-((5-morpholinopyridin-2-yl)amino)isonicotinamide] | 10 | 6.7 | 980 | – |
| COc1ccc(Nc2cc(C(=O)Nc3cncc(-c4ccccc4F)c3)ccn2)nc1 [Example 141, N-(5-(2-Fluorophenyl)pyridin-3-yl)-2-((5-methoxylpyridin-2-yl)amino)isonicotinamide] | 1.8 | 3.5 | 680 | – |
| O=C(Nc1cncc(-c2ccccc2F)c1)c1ccnc(Nc2ccc3ccccc3n2)c1 [Example 142, N-(5-(2-Fluorophenyl)pyridin-3-yl)-2-(quinolin-2-ylamino)isonicotinamide] | 5.6 | 23 | 2100 | – |
| Cc1ccc(Nc2cc(C(=O)Nc3cncc(-c4ccccc4F)c3)ccn2)nc1C [Example 143, 2-((5,6-Dimethylpyridin-2-yl)amino)-N-(5-(2-fluorophenyl)pyridin-3-yl)isonicotinamide] | 6 | – | 2800 | 8.7 |

| SMILES | IC50 (GSK3α) [nM] | IC50 (GSK3β; [1]) [nM] | IC50 (pTau) [nM] | IC50 (GSK3β) [nM] |
| --- | --- | --- | --- | --- |
| O=C(Nc1cncc(-c2ccccc2)c1)c1ccnc(Nc2cccc(C(F)(F)F)n2)c1 [Example 144, N-(5-Phenylpyridin-3-yl)-2-((6-(trifluoromethyl)pyridin-2-yl)amino)isonicotinamide] | 39 | 10 | 910 | – |
| O=C(Nc1cncc(-c2ccccc2Cl)c1)c1ccnc(Nc2cccc(C(F)(F)F)n2)c1 [Example 145, N-(5-(2-Chlorophenyl)pyridin-3-yl)-2-((6-(trifluoromethyl)pyridin-2-yl)amino)isonicotinamide] | 4.4 | 6.4 | 730 | – |
| O=C(Nc1cncc(-c2cc(F)ccc2F)c1)c1ccnc(Nc2cccc(C(F)(F)F)n2)c1 [Example 146, N-(5-(2,5-Difluorophenyl)pyridin-3-yl)-2-((6-(trifluoromethyl)pyridin-2-yl)amino)isonicotinamide] | 3.2 | 5.1 | 1400 | – |
| O=C(Nc1cncc(-c2cccc(F)c2F)c1)c1ccnc(Nc2cccc(C(F)(F)F)n2)c1 [Example 147, N-(5-(2,3-Difluorophenyl)pyridin-3-yl)-2-((6-(trifluoromethyl)pyridin-2-yl)amino)isonicotinamide] | 44 | 2.3 | 380 | – |
| COc1ccc(Nc2cc(C(=O)Nc3cncc(-c4ccccc4F)c3)ccn2)nc1OC [Example 151, 2-((5,6-Dimethoxypyridin-2-yl)amino)-N-(5-(2-fluorophenyl)pyridin-3-yl)isonicotinamide] | 2.4 | 6 | 510 | – |
| N#Cc1cccc(Nc2cc(C(=O)Nc3cncc(-c4ccccc4F)c3)ccn2)n1 [Example 152, 2-((6-Cyanopyridin-2-yl)amino)-N-(5-(2-fluorophenyl)pyridin-3-yl)isonicotinamide] | 0.87 | 1.6 | 260 | – |
| O=C(Nc1cncc(-c2ccccc2F)c1)c1ccnc(Nc2ccc3cnccc3n2)c1 [Example 153, 2-((1,6-Naphthyridin-2-yl)amino)-N-(5-(2-fluorophenyl)pyridin-3-yl)isonicotinamide] | 0.45 | 1.5 | 200 | – |
| CC(C)(C)C(=O)Nc1cccc(Nc2cc(C(=O)Nc3cncc(-c4ccccc4F)c3)ccn2)n1 [Example 154, N-(5-(2-Fluorophenyl)pyridin-3-yl)-2-((6-pivalamidopyridin-2-yl)amino)isonicotinamide] | 2.2 | 9.2 | 1100 | – |
| Cc1nc(Nc2cc(C(=O)Nc3cncc(-c4ccccc4F)c3)ccn2)ccc1C#N [Example 155, 2-((5-Cyano-6-methylpyridin-2-yl)amino)-N-(5-(2-fluorophenyl)pyridin-3-yl)isonicotinamide] | 1.2 | 3.6 | 570 | – |
| NS(=O)(=O)c1ccc(Nc2cc(C(=O)Nc3cncc(-c4ccccc4F)c3)ccn2)nc1 [Example 156, N-(5-(2-Fluorophenyl)pyridin-3-yl)-2-((5-sulfamoylpyridin-2-yl)amino)isonicotinamide] | 1.6 | 3 | 5600 | – |
| CN(C)S(=O)(=O)c1ccc(Nc2cc(C(=O)Nc3cncc(-c4ccccc4F)c3)ccn2)nc1 [Example 157, 2-((5-(N,N-Dimethylsulfamoyl)pyridin-2-yl)amino)-N-(5-(2-fluorophenyl)pyridin-3-yl)isonicotinamide] | 1.6 | 3.6 | 750 | – |
| CC(=O)c1ccc(Nc2cc(C(=O)Nc3cncc(-c4ccccc4F)c3)ccn2)nc1 [Example 158, 2-((5-Acetylpyridin-2-yl)amino)-N-(5-(2-fluorophenyl)pyridin-3-yl)isonicotinamide] | 3 | 6 | 690 | – |
| O=C(Nc1cncc(-c2ccccc2F)c1)c1ccnc(Nc2ccc(S(=O)(=O)N3CCCCC3)cn2)c1 [Example 159, N-(5-(2-Fluorophenyl)pyridin-3-yl)-2-((5-(piperidin-1-ylsulfonyl)pyridin-2-yl)amino)isonicotinamide] | 1.9 | – | 960 | 3.9 |
| N#CC1(c2ccc(Nc3cc(C(=O)Nc4cncc(-c5ccccc5F)c4)ccn3)nc2)CC1 [Example 163, 2-((5-(1-Cyanocyclopropyl)pyridin-2-yl)amino)-N-(5-(2-fluorophenyl)pyridin-3-yl)isonicotinamide] | 1.1 | 3.2 | 610 | – |
| CC(C)(C#N)c1ccc(Nc2cc(C(=O)Nc3cncc(-c4ccccc4F)c3)ccn2)nc1 [Example 164, 2-((5-(2-Cyanopropan-2-yl)pyridin-2-yl)amino)-N-(5-(2-fluorophenyl)pyridin-3-yl)isonicotinamide] | 2.4 | 4.9 | 3100 | – |
| N#Cc1cccc(Nc2cc(C(=O)Nc3cncc(-c4ccc(C#N)c(F)c4)c3)ccn2)n1 [Example 165, N-(5-(4-Cyano-3-fluorophenyl)pyridin-3-yl)-2-((6-cyanopyridin-2-yl)amino)isonicotinamide] | 0.4 | 1.2 | 84 | – |
